The source of these data is ChEMBL document CHEMBL4813957, “Antitubercular properties of thiazolidin-4-ones - A review” (Eur J Med Chem, 2021).

For data set [1], the system named is Mycobacterium tuberculosis. Nature of the data set: Antimycobacterial activity against Mycobacterium tuberculosis H37Rv assessed as inhibition of bacteria at 12.5 ug/ml by microplate alamar blue assay relative to control. In kind it is functional.
Data set [2] deals with Mycobacterium tuberculosis. Briefly: Antimycobacterial activity against Mycobacterium tuberculosis H37Rv assessed as bacterial inhibition at 25 ug/ml by microplate alamar blue assay relative to control. It counts as functional.
The subject of data set [3] is Mycobacterium tuberculosis. Nature of the data set: Antimycobacterial activity against Mycobacterium tuberculosis H37Rv 27294 by microplate alamar blue assay. It counts as functional.
Data set [4] is described as follows: Cytotoxicity against African green monkey Vero cells after 72 hrs by cell titer glo luminescent cell viability assay. In kind it is cell-based. As to conditions: chlorocebus sabaeus.
In data set [5] the test system is Mycobacterium tuberculosis. Briefly: Antimycobacterial activity against Mycobacterium tuberculosis H37Rv assessed as growth inhibition at 50 ug/ml by Lowenstein-Jensen method relative to control. In kind it is functional. As to conditions: read-out: GI.
The test system of data set [6] is Mycobacterium tuberculosis. Nature of the data set: Antimycobacterial activity against Mycobacterium tuberculosis by microplate alamar blue assay. In kind it is functional.
In data set [7] the test system is Mycobacterium tuberculosis. Briefly: Antimycobacterial activity against Mycobacterium tuberculosis H37Rv assessed as bacterial growth inhibition at 6.25 ug/ml by BACTEC MGIT method relative to control. In kind it is functional.
The test system of data set [8] is Mycobacterium tuberculosis. Briefly: Antimycobacterial activity against Mycobacterium tuberculosis H37Ra ATCC 25177 measured on 12th day by XTT reduction menadione assay. In kind it is functional. To be noted: H37Ra ATCC 25177, 288 h, time 12 day.
Data set [9] relates to Mycobacterium tuberculosis. Nature of the data set: Antimycobacterial activity against Mycobacterium tuberculosis. In kind it is functional.
In data set [10] the test system is Mycobacterium tuberculosis. Briefly: Antimycobacterial activity against Mycobacterium tuberculosis H37Rv assessed as growth inhibition at 16 ug/ml measured after 12 to 28 days by Lowenstein-Jensen agar method relative to control. In kind it is functional. As to conditions: time 12-28 day, read-out: GI.
Data set [11] concerns Mycobacterium tuberculosis. Briefly: Antimycobacterial activity against Mycobacterium tuberculosis H37Rv ATCC 27294 by BACTEC radiometric method. In kind it is functional.
Data set [12] deals with Mycobacterium tuberculosis. Nature of the data set: Antimycobacterial activity against Mycobacterium tuberculosis H37Rv assessed as inhibition of bacteria at 12.5 ug/ml measured after 12 to 28 days by Lowenstein-Jensen method relative to control. It counts as functional. To be noted: time 12-28 day.
Data set [13] deals with Mycobacterium tuberculosis. Nature of the data set: Antimycobacterial activity against Mycobacterium tuberculosis H37Rv assessed as growth inhibition at 6.25 ug/ml by BACTEC radiometric method relative to control. In kind it is functional. To be noted: read-out: GI.
For data set [14], the system named is Mycobacterium tuberculosis. Nature of the data set: Antimycobacterial activity against Mycobacterium tuberculosis H37Rv incubated for 7 days by microplate alamar blue assay. In kind it is functional. To be noted: 168 h, time 7 day.
Data set [15] in a line: Inhibition of Mycobacterium tuberculosis Pantothenate Synthetase expressed in Escherichia coli BL21(DE3) cells using beta-alanine as substrate.
For data set [16], the system named is Mycobacterium tuberculosis. Briefly: Antimycobacterial activity against Mycobacterium tuberculosis H37Rv assessed as growth inhibition at 12.5 ug/ml by BACTEC radiometric method relative to control. In kind it is functional. As to conditions: read-out: GI.
The test system of data set [17] is Mycobacterium tuberculosis. Nature of the data set: Antimycobacterial activity against Mycobacterium tuberculosis H37Ra ATCC 25177 incubated for 7 days by microplate alamar blue assay. As to conditions: H37Ra ATCC 25177, 168 h, time 7 day. In kind it is functional.
For data set [18], the system named is Mycobacterium tuberculosis. Briefly: Bactericidal activity against Mycobacterium tuberculosis H37Ra ATCC 25177 assessed as ratio of MBC to MIC. In kind it is functional.
A short description of data set [19]: Selectivity index, ratio of IC50 for African green monkey Vero cells to MIC for antitubercular activity against Mycobacterium tuberculosis H37Ra ATCC 25177. It counts as toxicity.
Data set [20] has as its system Mycobacterium tuberculosis. Nature of the data set: Antimycobacterial activity against Mycobacterium tuberculosis H37Rv assessed as mycobacterial growth inhibition at 12.5 ug/ml relative to control. It counts as functional. As to conditions: read-out: GI.
Data set [21] has as its system Mycobacterium tuberculosis. Nature of the data set: Antimycobacterial activity against Mycobacterium tuberculosis H37Rv incubated for 45 days by Lowenstein-Jensen method. To be noted: 1080 h, time 45 day. It counts as functional.
In data set [22] the test system is Mycobacterium tuberculosis. Nature of the data set: Antimycobacterial activity against Mycobacterium tuberculosis H37Rv measured after 12 to 28 days by Lowenstein-Jensen method. In kind it is functional. To be noted: time 12-28 day.
For data set [23], the system named is Mycobacterium tuberculosis. Briefly: Antimycobacterial activity against Mycobacterium tuberculosis H37Ra ATCC 25177 measured on 8th to 12th day by XTT reduction menadione assay. As to conditions: time 8-12 day. In kind it is functional.

Values after ≈ are worked out from the molar mass of the structure shown.

As for `CCCCCCCCCCCCN1C(=O)C(CC(=O)O)SC12CCN(C(=O)C(N)Cc1ccccc1)CC2` (configuration not stated), the inhibition at 12.5 µg/mL in data set [1] is 94%. The inhibition at 25 µg/mL in data set [2] was found to be 97%.
The compound `CN1C(=O)/C(=C/c2ccccc2F)S/C1=N/NC(=O)c1ccncc1` had a 90% effect concentration (IC90) in data set [3] of 2.95 µg/mL (≈ 8.28 µM). Also, the 50% cytotoxic concentration (CC50) at 72 h in data set [4] stood at 15.5 µg/mL (≈ 43.6 µM).
For `O=C1CSC(c2ccccc2)N1C(=O)NCCCN1c2ccccc2Sc2ccccc21` (configuration not stated), the inhibition of growth at 50 µg/mL in data set [5] was determined as 75%.
`O=C(NN1C(=O)CSC1c1cccc([N+](=O)[O-])c1)c1coc2ccc3ccccc3c12` (configuration not stated) yielded an MIC in data set [6] of 50 µg/mL (≈ 115 µM).
Turning to `Cc1nc2ccccc2c(=O)n1CCNC1=NC(=O)/C(=C/c2ccc([N+](=O)[O-])cc2)S1`, in data set [7], the inhibition at 6.25 µg/mL was found to be 99%.
The compound `O=C1CSC(c2ccc(OCc3cc4ccccc4n4nnnc34)cc2)N1c1ccc([N+](=O)[O-])cc1` (configuration not stated) yielded an MIC in [8] of 20.3 µg/mL (≈ 40.8 µM).
In the case of `Cc1nc2ccccc2c(=O)n1CCNC1=NC(=O)/C(=C/c2cccc(Cl)c2)S1`, in data set [7], the inhibition at 6.25 µg/mL stood at 99%.
In the case of `Cc1nc(/N=C2\C(=O)Nc3ccccc32)sc1C(=O)NN1C(=O)CSC1c1ccc(Cl)cc1` (configuration not stated), the MIC in data set [9] was found to be 0.78 µM (≈ 0.388 µg/mL).
Take `COc1ccc(C(CNC(=O)CNN2C(=O)CSC2c2ccc(O)c(OC)c2)C2(O)CCCCC2)cc1` (configuration not stated): the inhibition of growth at 16 µg/mL in [10] was found to be 99%.
For `O=C(NN1C(=O)CSC1c1ccc([N+](=O)[O-])cc1)c1[nH]c2ccc(F)cc2c1-c1ccccc1` (configuration not stated), in data set [11], the MIC came to 6.25 µg/mL (≈ 13.1 µM).
In the case of `O=C1CSC(c2cc3ccccc3nc2Cl)N1c1ccc(F)cc1` (configuration not stated), the inhibition at 12.5 µg/mL in [12] stood at 99%.
For `COc1ccc(C(=O)Nc2ccc(C(=O)NN3C(=O)CSC3c3ccc([N+](=O)[O-])o3)cc2)cc1` (configuration not stated), the inhibition of growth at 6.25 µg/mL in data set [13] stood at 98%.
In [14], `COc1cc(/C=C2\SC(=S)N(CCC(=O)NNC(=O)c3ccncc3)C2=O)cc(OC)c1OC` had an MIC of 1.55 µM (≈ 0.779 µg/mL). The same compound came in with an IC50 in data set [15] of 350 nM.
For the compound `O=C(O)c1ccc(N2C(=O)CSC23C(=O)Nc2ccc(F)cc23)cc1O` (configuration not stated), the inhibition of growth at 12.5 µg/mL in data set [16] came to 98%.
The compound `O=C(CCN1C(=O)/C(=C/c2ccc([N+](=O)[O-])cc2)SC1=S)NNC(=O)c1ccccc1` gave an MIC in data set [14] of 1.71 µM (≈ 0.781 µg/mL). The same compound had an IC50 in data set [15] of 370 nM.
In data set [9], `Cc1nc(/N=C2\C(=O)Nc3ccccc32)sc1C(=O)NN1C(=O)CSC1c1ccccc1F` (configuration not stated) had an MIC of 0.78 µM (≈ 0.376 µg/mL).
For the compound `NC(=S)N/N=C/c1ccc(OC(=O)/C=C2\SC(=O)NC2=O)c(Cl)c1`, in [17], the MIC was 0.031 µg/mL (≈ 0.0806 µM). Further, the Ratio in [18] is listed as 2. In addition, the selectivity ratio in data set [19] is more than 10.
Consider `CC1SC(c2ccc(O)cc2)N(Nc2nc(-c3ccccc3)c(C#N)c(=O)n2C)C1=O` (configuration not stated), for which the inhibition of growth at 12.5 µg/mL in [20] turned out to be 44%.
For the compound `Cc1ccc(N2C(=O)CSC23C(=O)Nc2ccc(C)cc23)cc1` (configuration not stated), the inhibition of growth at 12.5 µg/mL in data set [16] turned out to be 90%.
As to `CC1Oc2ccccc2C=C1/C=C1\SC(=S)NC1=O` (configuration not stated), the MIC in data set [21] stood at 0.36 µM (≈ 0.104 µg/mL).
`NC(=S)N/N=C/c1ccc(OC(=O)CC2SC(=O)NC2=O)c(Cl)c1` (configuration not stated) had an MIC in data set [17] of 0.031 µg/mL (≈ 0.0801 µM). The Ratio in data set [18] is recorded as 2. Further, the selectivity ratio in data set [19] is more than 10.
In [22], `CCc1ccc(CCOc2ccc(/C=C3\SC(=S)N(CC(=O)Nc4nc5ccc(C)cc5s4)C3=O)cc2)nc1` gave an MIC of 25 µg/mL (≈ 43.5 µM).
For the compound `O=C(NN1C(=O)CSC1c1ccc([N+](=O)[O-])cc1)c1coc2ccc3ccccc3c12` (configuration not stated), the minimum inhibitory concentration (MIC) in [6] amounted to 50 µg/mL (≈ 115 µM).
In the case of `Cc1ccc(/C=C2\SC(NCCn3c(C)nc4ccccc4c3=O)=NC2=O)cc1`, the inhibition at 6.25 µg/mL in data set [7] amounted to 99%.
`NC(=S)N/N=C/c1ccc(OC(=O)/C=C2\SC(=O)NC2=O)cc1` had a minimal inhibitory concentration (MIC) in data set [17] of 0.031 µg/mL (≈ 0.0885 µM). Further, the Ratio in data set [18] amounted to 2. Also, the selectivity ratio in [19] is more than 10.
On to `Cc1cc(NS(=O)(=O)c2ccc(N3C(=O)CSC3c3c(F)cccc3F)cc2)no1` (configuration not stated), for which the concentration for an effect of 90% (IC90) in data set [23] amounted to 0.43 µg/mL (≈ 0.952 µM).
For the compound `O=C1/C(=C/c2ccc(F)cc2)SC(=S)N1Cc1nnc(-c2cccnc2SCc2ccccc2)o1`, the inhibition of growth at 50 µg/mL in data set [5] was 99%.
